ChEMBL document CHEMBL5241131, “2-Anilino-4-(1-methyl-1H-pyrazol-4-yl)pyrimidine-derived CDK2 inhibitors as anticancer agents: Design, synthesis & evaluation” (Bioorg Med Chem, 2023)
The source made the active and inactive calls. No cut-off for these calls is given here.

Legend:
[1] = target: Cyclin-dependent kinase 5/CDK5 activator 1 (Homo sapiens) (UniProt Q00535+Q15078); assay: Inhibition of CDK5/p25 (unknown origin) at 1 uM incubated for 30 to 60 mins presence of dithiothreitol by Cheng-Prusoff equation analysis relative to control; assay type: protein-complex assay; conditions: time 30-60 min
Chain of Cyclin-dependent kinase 5/CDK5 activator 1 (Homo sapiens) (Q00535 whole entry): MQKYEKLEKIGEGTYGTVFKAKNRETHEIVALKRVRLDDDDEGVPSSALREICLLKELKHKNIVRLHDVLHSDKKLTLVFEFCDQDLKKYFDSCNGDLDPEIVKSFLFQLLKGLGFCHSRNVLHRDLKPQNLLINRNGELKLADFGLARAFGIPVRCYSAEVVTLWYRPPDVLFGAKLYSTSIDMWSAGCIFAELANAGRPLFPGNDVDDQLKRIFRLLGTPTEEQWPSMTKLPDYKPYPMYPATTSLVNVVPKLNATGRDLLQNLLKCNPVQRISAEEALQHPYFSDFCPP
Chain of Cyclin-dependent kinase 5/CDK5 activator 1 (Homo sapiens) (Q15078 99-307 partner limits assumed): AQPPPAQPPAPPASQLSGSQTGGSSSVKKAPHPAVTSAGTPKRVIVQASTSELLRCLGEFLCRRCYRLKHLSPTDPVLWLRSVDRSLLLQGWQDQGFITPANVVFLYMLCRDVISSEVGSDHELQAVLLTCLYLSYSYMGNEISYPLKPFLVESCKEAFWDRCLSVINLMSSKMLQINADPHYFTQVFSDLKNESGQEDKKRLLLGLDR

A2780 [2] = assay: Antiproliferative activity against human A2780 cells assessed as inhibition of cell growth at 1 uM incubated for 72 hrs by MTT assay; assay type: functional; design: scale not given: the % may be the effect or the level left
[3] = target: T1, Cyclin-dependent kinase 2/cyclin E (Homo sapiens, UniProt P24941); assay: Inhibition of CDK2/cyclin E (unknown origin) assessed as inhibition constant incubated for 30 to 60 mins presence of dithiothreitol by Cheng-Prusoff equation analysis; assay type: protein-complex assay
[4] = target: CDK9/cyclin T1 (Homo sapiens) (UniProt O60563+P50750); assay: Inhibition of CDK9/cyclin T1 (unknown origin) at 1 uM incubated for 30 to 60 mins presence of dithiothreitol by Cheng-Prusoff equation analysis relative to control; assay type: protein-complex assay; conditions: time 30-60 min
[5] = target: Cyclin-dependent kinase 1/cyclin B (Homo sapiens) (UniProt P06493+P14635+Q8WWL7+O95067); assay: Inhibition of CDK1/Cyclin B (unknown origin) at 1 uM incubated for 30 to 60 mins presence of dithiothreitol by Cheng-Prusoff equation analysis relative to control; assay type: protein-complex assay; conditions: time 30-60 min
[6] = target: Cyclin-dependent kinase 2/cyclin E (Homo sapiens) (UniProt P24864+P24941+O96020); assay: Inhibition of CDK2/cyclin E (unknown origin) at 1 uM incubated for 30 to 60 mins presence of dithiothreitol by Cheng-Prusoff equation analysis relative to control; assay type: protein-complex assay; conditions: time 30-60 min
A2780 [7] = assay: Antiproliferative activity against human A2780 cells assessed as inhibition of cell growth incubated for 72 hrs by MTT assay; assay type: functional
[8] = target: T1, Cyclin-dependent kinase 2/cyclin E; assay: Inhibition of CDK2/cyclin E (unknown origin) assessed as inhibition constant; assay type: protein-complex assay
[9] = target: T2, Cyclin-dependent kinase 1/cyclin B (Homo sapiens, UniProt P06493); assay: Inhibition of CDK1/Cyclin B (unknown origin) assessed as inhibition constant; assay type: protein-complex assay
CDK9/cyclin T1 = CDK9/cyclin T1 (Homo sapiens, UniProt P50750); assay: Inhibition of CDK9/cyclin T1 (unknown origin) assessed as inhibition constant incubated for 30 to 60 mins presence of dithiothreitol by Cheng-Prusoff equation analysis; assay type: protein-complex assay
Chain of CDK9/cyclin T1 (O60563 whole entry): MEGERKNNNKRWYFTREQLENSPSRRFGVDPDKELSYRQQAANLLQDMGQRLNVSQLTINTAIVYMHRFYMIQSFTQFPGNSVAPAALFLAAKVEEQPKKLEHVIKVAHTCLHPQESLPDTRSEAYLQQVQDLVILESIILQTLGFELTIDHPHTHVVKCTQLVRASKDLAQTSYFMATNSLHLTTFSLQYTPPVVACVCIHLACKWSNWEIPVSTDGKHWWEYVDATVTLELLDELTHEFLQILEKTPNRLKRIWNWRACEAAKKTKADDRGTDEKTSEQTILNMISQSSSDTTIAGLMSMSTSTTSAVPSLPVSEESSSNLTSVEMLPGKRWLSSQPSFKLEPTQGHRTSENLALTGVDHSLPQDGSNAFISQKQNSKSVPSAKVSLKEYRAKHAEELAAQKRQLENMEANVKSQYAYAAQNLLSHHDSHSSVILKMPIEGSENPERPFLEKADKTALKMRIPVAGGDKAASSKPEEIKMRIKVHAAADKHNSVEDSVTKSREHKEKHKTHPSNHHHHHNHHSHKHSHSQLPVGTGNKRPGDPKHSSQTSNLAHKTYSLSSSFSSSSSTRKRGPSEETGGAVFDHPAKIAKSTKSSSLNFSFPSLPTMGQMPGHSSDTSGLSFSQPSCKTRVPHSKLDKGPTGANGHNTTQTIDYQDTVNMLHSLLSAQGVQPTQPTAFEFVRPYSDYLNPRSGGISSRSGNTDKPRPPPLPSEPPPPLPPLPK
Chain of CDK9/cyclin T1 (P50750 whole entry): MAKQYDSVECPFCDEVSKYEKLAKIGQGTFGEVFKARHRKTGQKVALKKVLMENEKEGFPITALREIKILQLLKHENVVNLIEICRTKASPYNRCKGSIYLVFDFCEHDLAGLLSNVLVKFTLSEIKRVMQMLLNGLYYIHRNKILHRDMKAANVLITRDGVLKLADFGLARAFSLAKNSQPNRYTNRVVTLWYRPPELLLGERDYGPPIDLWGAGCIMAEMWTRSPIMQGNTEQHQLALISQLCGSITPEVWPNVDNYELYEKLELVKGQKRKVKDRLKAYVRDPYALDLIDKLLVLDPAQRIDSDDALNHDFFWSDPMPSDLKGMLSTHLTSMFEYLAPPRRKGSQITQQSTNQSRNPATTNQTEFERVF

[10] = target: T2, Cyclin-dependent kinase 1/cyclin B; assay: Inhibition of CDK1/Cyclin B (unknown origin) assessed as inhibition constant incubated for 30 to 60 mins presence of dithiothreitol by Cheng-Prusoff equation analysis; assay type: protein-complex assay
[11] = target: Cyclin-dependent kinase 5/CDK5 activator 1 (Homo sapiens, UniProt Q00535); assay: Inhibition of CDK5/p25 (unknown origin) assessed as inhibition constant incubated for 30 to 60 mins presence of dithiothreitol by Cheng-Prusoff equation analysis; assay type: protein-complex assay
Chain of Cyclin-dependent kinase 5/CDK5 activator 1 (Q00535 whole entry): as the sequence (Q00535 whole entry) above
Chain of Cyclin-dependent kinase 5/CDK5 activator 1 (Q15078 whole entry, further chain): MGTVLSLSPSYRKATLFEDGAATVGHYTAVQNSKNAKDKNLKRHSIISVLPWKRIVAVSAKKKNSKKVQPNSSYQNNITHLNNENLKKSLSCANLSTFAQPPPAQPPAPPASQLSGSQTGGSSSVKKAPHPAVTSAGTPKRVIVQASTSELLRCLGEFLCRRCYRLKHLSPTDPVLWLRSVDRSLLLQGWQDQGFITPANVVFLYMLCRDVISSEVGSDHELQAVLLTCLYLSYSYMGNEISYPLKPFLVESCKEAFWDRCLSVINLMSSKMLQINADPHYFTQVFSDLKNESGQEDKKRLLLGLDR

HCT-116 [12] = assay: Induction of apoptosis in human HCT-116 cells assessed as viable cells at 1 uM incubated for 72 hrs by AnnexinV-FITC/propidium iodide staining based flow cytometry (reference value: 93.43%); assay type: functional; conditions: read-out: Activity
HCT-116 [13] = assay: Induction of cell cycle arrest in human HCT-116 cells assessed as accumulation of cells at sub G1 phase at 1 uM incubated for 24 hrs by propidium iodide staining based flow cytometry (reference value: 0.24%); assay type: functional
HCT-116 [14] = assay: Induction of cell cycle arrest in human HCT-116 cells assessed as accumulation of cells at G2/M phase at 1 uM incubated for 24 hrs by propidium iodide staining based flow cytometry (reference value: 28.37%); assay type: functional
HCT-116 [15] = assay: Induction of apoptosis in human HCT-116 cells assessed as necrotic cells at 1 uM incubated for 72 hrs by AnnexinV-FITC/propidium iodide staining based flow cytometry (Rvb =0.71%); assay type: functional
HCT-116 [16] = assay: Induction of apoptosis in human HCT-116 cells assessed as increase in cleaved PARP level at 1 uM incubated for 24 hrs by Western blot analysis; assay type: functional, cell-based
HCT-116 [17] = assay: Induction of cell cycle arrest in human HCT-116 cells assessed as accumulation of cells at G1 phase at 1 uM incubated for 24 hrs by propidium iodide staining based flow cytometry (reference value: 51.33%); assay type: functional
HCT-116 [18] = assay: Induction of apoptosis in human HCT-116 cells assessed as early apoptotic cells at 1 uM incubated for 72 hrs by AnnexinV-FITC/propidium iodide staining based flow cytometry (reference value: 2.95%); assay type: functional
HCT-116 [19] = assay: Induction of cell cycle arrest in human HCT-116 cells assessed as accumulation of cells at S phase at 1 uM incubated for 24 hrs by propidium iodide staining based flow cytometry (reference value: 18.01%); assay type: functional
HCT-116 [20] = assay: Induction of apoptosis in human HCT-116 cells assessed as late apoptotic cells at 1 uM incubated for 72 hrs by AnnexinV-FITC/propidium iodide staining based flow cytometry (reference value: 2.91%); assay type: functional
OVCAR-5 = assay: Antiproliferative activity against human OVCAR-5 cells assessed as inhibition of cell growth incubated for 72 hrs by MTT assay; assay type: functional
NCI-H82 = assay: Antiproliferative activity against human NCI-H82 cells assessed as inhibition of cell growth incubated for 72 hrs by MTT assay; assay type: functional
HCT-116 [21] = assay: Antiproliferative activity against human HCT-116 cells assessed as inhibition of cell growth incubated for 72 hrs by MTT assay; assay type: functional
U-251 = assay: Antiproliferative activity against human U-251 cells assessed as inhibition of cell growth incubated for 72 hrs by MTT assay; assay type: functional
KM12 = assay: Antiproliferative activity against human KM12 cells assessed as inhibition of cell growth incubated for 72 hrs by MTT assay; assay type: functional
OAW-28 = assay: Antiproliferative activity against human OAW-28 cells assessed as inhibition of cell growth incubated for 72 hrs by MTT assay; assay type: functional
NCI-H460 = assay: Antiproliferative activity against human NCI-H460 cells assessed as inhibition of cell growth incubated for 72 hrs by MTT assay; assay type: functional
MV4-11 = assay: Antiproliferative activity against human MV4-11 cells assessed as inhibition of cell growth incubated for 72 hrs by MTT assay; assay type: functional
[22] = Antiproliferative activity against human COV504 cells assessed as inhibition of cell growth incubated for 72 hrs by MTT assay; assay type: functional
COLO 205 = assay: Antiproliferative activity against human COLO 205 cells assessed as inhibition of cell growth incubated for 72 hrs by MTT assay; assay type: functional
OV-90 = assay: Antiproliferative activity against human OV-90 cells assessed as inhibition of cell growth incubated for 72 hrs by MTT assay; assay type: functional
MDA-MB-231 = assay: Antiproliferative activity against human MDA-MB-231 cells assessed as inhibition of cell growth incubated for 72 hrs by MTT assay; assay type: functional
U-937 = assay: Antiproliferative activity against human U-937 cells assessed as inhibition of cell growth incubated for 72 hrs by MTT assay; assay type: functional
HT-29 = assay: Antiproliferative activity against human HT-29 cells assessed as inhibition of cell growth incubated for 72 hrs by MTT assay; assay type: functional
ES-2 = assay: Antiproliferative activity against human ES2 cells assessed as inhibition of cell growth incubated for 72 hrs by MTT assay; assay type: functional
[23] = Antiproliferative activity against human COV318 cells assessed as inhibition of cell growth incubated for 72 hrs by MTT assay; assay type: functional

Cn1nccc1-c1nc(Nc2cccc(S(N)(=O)=O)c2)ncc1F
inhibition [1]: 48% | Activity (A2780 [2]): 0% | Ki [3]: 0.171 µM | inhibition [4]: 59% | inhibition [5]: 65%

Cn1cc(-c2nc(Nc3ccc(F)c(C(F)(F)F)c3)ncc2F)cn1
inhibition [1]: 16% | Activity (A2780 [2]): 28% | inhibition [4]: 51% | inhibition [6]: 1% | inhibition [5]: 22%

Cn1cc(-c2cc(N)nc(Nc3cccc(S(N)(=O)=O)c3)n2)cn1
inhibition [1]: 41% | Activity (A2780 [2]): 0% | inhibition [4]: 57% | inhibition [6]: 13% | inhibition [5]: 4%

Cn1cc(-c2nc(Nc3ccc(S(=O)(=O)C(F)(F)F)cc3)ncc2F)cn1
inhibition [1]: 46% | Activity (A2780 [2]): 54% | Ki [3]: 0.07 µM | inhibition [4]: 6% | inhibition [6]: 15% | inhibition [5]: 54%

Cn1cc(-c2nc(Nc3cccc([N+](=O)[O-])c3)ncc2Cl)cn1
inhibition [1]: 56% | inhibition [4]: 73% | GI50 (A2780 [7]): 0.007 µM | inhibition [6]: 48% | inhibition [5]: 24%

CC[C@@H](Nc1nc(NCc2cnc(C)cc2C)c2ncn(C(C)C)c2n1)[C@H](C)O
Ki [8]: 0.005 µM | Ki [9]: 0.578 µM

Cn1cc(-c2nc(Nc3cccc(S(N)(=O)=O)c3)ncc2Cl)cn1
Ki (CDK9/cyclin T1): 0.301 µM | Ki [3]: 0.176 µM | Ki [10]: 0.005 µM | GI50 (A2780 [7]): 0.08 µM | Ki [11]: 0.092 µM

Cn1cc(-c2nc(Nc3cccc(Cl)c3)ncc2F)cn1
inhibition [1]: 46% | Activity (A2780 [2]): 12% | inhibition [4]: 69% | inhibition [6]: 57% | inhibition [5]: 50%

Nc1cc(-c2cnn(Cc3ccccc3)c2)nc(Nc2cccc(S(N)(=O)=O)c2)n1
inhibition [1]: 40% | Activity (A2780 [2]): 0% | inhibition [4]: 40% | inhibition [6]: 53% | inhibition [5]: 6%

Cc1nn(C)cc1-c1nc(NC2CCN(S(C)(=O)=O)CC2)ncc1Cl
Activity (A2780 [2]): 20% | Ki [3]: 0.016 µM | Ki [10]: 0.012 µM | inhibition [4]: 27% | Ki [11]: 0.002 µM

Cn1cc(-c2nc(NC3CCN(S(C)(=O)=O)CC3)ncc2F)cn1
Activity (A2780 [2]): 17% | Ki [3]: 0.018 µM | Ki [10]: 0.099 µM | inhibition [4]: 55% | Ki [11]: 0.036 µM

CNc1nc(C)c(-c2nc(Nc3cccc(S(N)(=O)=O)c3)ncc2F)s1 [ASNUCICLIB]
viability at 1 µM (HCT-116 [12]): 77% | Activity (HCT-116 [13]): 1.21% | Activity (HCT-116 [14]): 53.11% | Activity (HCT-116 [15]): 0.95% | Activity (HCT-116 [16]): Active | Activity (HCT-116 [17]): 28.88% | Activity (HCT-116 [18]): 15.19% | Activity (HCT-116 [19]): 16.81% | Activity (HCT-116 [20]): 6.85%

Cn1cc(-c2nc(Nc3cccc([N+](=O)[O-])c3)ncc2F)cn1
inhibition [1]: 67% | Ki (CDK9/cyclin T1): 0.147 µM | Ki [3]: 0.087 µM | GI50 (A2780 [7]): 0.113 µM | inhibition [5]: 54%

Cn1cc(-c2nc(Nc3ccc(S(N)(=O)=O)cc3)ncc2F)cn1
Ki (CDK9/cyclin T1): 0.271 µM | Ki [3]: 0.021 µM | Ki [10]: 0.006 µM | GI50 (A2780 [7]): 0.232 µM | Ki [11]: 0.019 µM

Cn1cc(-c2nc(NC3CCN(S(C)(=O)=O)CC3)ncc2Cl)cn1
Activity (A2780 [2]): 45% | Ki [3]: 0.008 µM | Ki [10]: 0.026 µM | inhibition [4]: 39% | Ki [11]: 0.009 µM

Cn1cc(-c2nc(Nc3ccc(S(C)(=O)=O)cc3)ncc2F)cn1
Activity (A2780 [2]): 5% | Ki [10]: 0.146 µM | inhibition [4]: 33% | Ki [11]: 0.042 µM

Cn1cc(-c2nc(Nc3cccc(S(=O)(=O)C(F)(F)F)c3)ncc2Cl)cn1
inhibition [1]: 58% | Activity (A2780 [2]): 63% | inhibition [4]: 45% | GI50 (A2780 [7]): 0.125 µM | inhibition [6]: 53% | inhibition [5]: 2%

Cn1cc(-c2nc(Nc3cccc(S(N)(=O)=O)c3)ncc2F)cn1
GI50 (OVCAR-5): 0.08 µM | GI50 (NCI-H82): 0.119 µM | GI50 (HCT-116 [21]): 0.065 µM | GI50 (U-251): 0.154 µM | GI50 (KM12): 0.09 µM | GI50 (OAW-28): 0.149 µM | GI50 (NCI-H460): 0.162 µM | GI50 (MV4-11): 0.032 µM | Ki (CDK9/cyclin T1): 0.026 µM | GI50 [22]: 0.106 µM | GI50 (COLO 205): 0.064 µM | Ki [3]: 0.023 µM | Ki [10]: 0.005 µM | GI50 (OV-90): 0.083 µM | GI50 (MDA-MB-231): 0.129 µM | GI50 (U-937): 0.025 µM | GI50 (HT-29): 0.081 µM | GI50 (A2780 [7]): 0.018 µM | Ki [11]: 0.077 µM | GI50 (ES-2): 0.109 µM | GI50 [23]: 0.079 µM

Cn1cc(-c2nc(Nc3ccc(S(C)(=O)=O)cc3)ncc2Cl)cn1
Activity (A2780 [2]): 63% | Ki (CDK9/cyclin T1): 0.229 µM | Ki [3]: 0.007 µM | Ki [10]: 0.006 µM | Ki [11]: 0.036 µM

Cn1cc(-c2nc(Nc3ccc(C(F)(F)F)c(Cl)c3)ncc2F)cn1
inhibition [1]: 3% | Activity (A2780 [2]): 32% | inhibition [4]: 39% | inhibition [6]: 10% | inhibition [5]: 8%

Cn1cc(-c2nc(Nc3cccc(S(=O)(=O)C(F)(F)F)c3)ncc2F)cn1
inhibition [1]: 46% | inhibition [4]: 20% | GI50 (A2780 [7]): 0.215 µM | inhibition [6]: 1% | inhibition [5]: 42%
